According to ChEMBL document CHEMBL1201862, “PubChem BioAssay data set” (2004):
Activity calls are given as the source filed them.

Tests used:
Format in all cases: functional
[1] = biological target: T1, Sentrin-specific protease 8 (Homo sapiens, UniProt Q96LD8);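 note: luminescence read-out of SENP8 inhibition, dose-response confirmation following an ultra-high-throughput screen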
T1 sequence (Q96LD8 whole entry): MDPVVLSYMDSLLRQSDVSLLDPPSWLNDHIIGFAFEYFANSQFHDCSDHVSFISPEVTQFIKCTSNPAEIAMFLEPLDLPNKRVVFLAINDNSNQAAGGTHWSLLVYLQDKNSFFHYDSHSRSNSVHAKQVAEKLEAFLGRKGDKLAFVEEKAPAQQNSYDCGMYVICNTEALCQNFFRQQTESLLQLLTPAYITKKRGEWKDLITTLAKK

[2] = NIH-3T3 fibroblast cytotoxicity, dose response, cytotoxicity control, cell-based, fluorescence, Alamar Blue, secondary assay (AID 2327);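 note: NIH-3T3 mouse fibroblasts cultured with fluconazole at 8 µg/mL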
Caspase-3 = biological target: T2, Caspase-3 (Homo sapiens, UniProt P42574);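 note: Dose-response selectivity test against caspase-3 for candidate inhibitors of sentrin-specific proteases (SENPs)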
T2 sequence (P42574 whole entry): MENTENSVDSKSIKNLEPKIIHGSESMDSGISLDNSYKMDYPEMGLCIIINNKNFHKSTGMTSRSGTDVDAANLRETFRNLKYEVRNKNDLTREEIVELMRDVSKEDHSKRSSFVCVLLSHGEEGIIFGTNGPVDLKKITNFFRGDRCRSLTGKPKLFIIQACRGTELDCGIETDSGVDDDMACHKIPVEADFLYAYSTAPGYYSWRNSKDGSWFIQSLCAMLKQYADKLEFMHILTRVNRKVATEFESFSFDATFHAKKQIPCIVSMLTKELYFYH

[3] = biological target: T3, Sentrin-specific protease 6 (Homo sapiens, UniProt Q9GZR1);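 note: Luminescence-based dose-response confirmatory assay of SENP6 inhibition, following up an ultra-high-throughput screen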
T3 sequence (Q9GZR1 whole entry): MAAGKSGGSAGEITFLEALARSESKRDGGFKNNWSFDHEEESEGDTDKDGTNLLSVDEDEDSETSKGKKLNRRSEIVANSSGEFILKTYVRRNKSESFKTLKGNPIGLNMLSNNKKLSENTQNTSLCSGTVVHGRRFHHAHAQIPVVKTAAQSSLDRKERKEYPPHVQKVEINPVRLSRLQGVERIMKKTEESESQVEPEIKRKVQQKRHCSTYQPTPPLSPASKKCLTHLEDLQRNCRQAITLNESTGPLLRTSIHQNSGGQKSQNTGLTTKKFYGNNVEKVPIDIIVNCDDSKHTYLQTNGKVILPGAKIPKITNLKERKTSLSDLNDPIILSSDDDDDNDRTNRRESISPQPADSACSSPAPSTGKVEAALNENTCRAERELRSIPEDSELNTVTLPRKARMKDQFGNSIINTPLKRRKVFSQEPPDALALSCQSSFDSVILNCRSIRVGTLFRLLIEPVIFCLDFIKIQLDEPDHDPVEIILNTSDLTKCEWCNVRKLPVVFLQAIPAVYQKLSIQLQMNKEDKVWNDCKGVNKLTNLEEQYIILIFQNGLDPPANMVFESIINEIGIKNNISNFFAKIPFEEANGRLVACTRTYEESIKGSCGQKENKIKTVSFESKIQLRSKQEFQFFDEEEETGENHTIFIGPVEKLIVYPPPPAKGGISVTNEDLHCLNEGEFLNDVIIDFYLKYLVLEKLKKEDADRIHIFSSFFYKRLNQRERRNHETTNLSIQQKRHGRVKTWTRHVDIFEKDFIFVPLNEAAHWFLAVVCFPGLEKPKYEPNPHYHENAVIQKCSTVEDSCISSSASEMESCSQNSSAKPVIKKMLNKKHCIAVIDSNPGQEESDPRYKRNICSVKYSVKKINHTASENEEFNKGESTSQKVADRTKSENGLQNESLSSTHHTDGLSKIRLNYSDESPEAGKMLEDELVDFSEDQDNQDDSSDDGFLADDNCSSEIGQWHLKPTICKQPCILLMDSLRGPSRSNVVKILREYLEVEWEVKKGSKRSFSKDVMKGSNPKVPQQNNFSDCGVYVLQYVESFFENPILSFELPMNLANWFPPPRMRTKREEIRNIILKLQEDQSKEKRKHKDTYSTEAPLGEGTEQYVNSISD

[4] = biological target: T4, Sentrin-specific protease 7 (Homo sapiens, UniProt Q9BQF6);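 note: Luminescence-based dose-response confirmation of ultra-high-throughput screening hits, measuring inhibition of SENP7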
T4 sequence (Q9BQF6 whole entry): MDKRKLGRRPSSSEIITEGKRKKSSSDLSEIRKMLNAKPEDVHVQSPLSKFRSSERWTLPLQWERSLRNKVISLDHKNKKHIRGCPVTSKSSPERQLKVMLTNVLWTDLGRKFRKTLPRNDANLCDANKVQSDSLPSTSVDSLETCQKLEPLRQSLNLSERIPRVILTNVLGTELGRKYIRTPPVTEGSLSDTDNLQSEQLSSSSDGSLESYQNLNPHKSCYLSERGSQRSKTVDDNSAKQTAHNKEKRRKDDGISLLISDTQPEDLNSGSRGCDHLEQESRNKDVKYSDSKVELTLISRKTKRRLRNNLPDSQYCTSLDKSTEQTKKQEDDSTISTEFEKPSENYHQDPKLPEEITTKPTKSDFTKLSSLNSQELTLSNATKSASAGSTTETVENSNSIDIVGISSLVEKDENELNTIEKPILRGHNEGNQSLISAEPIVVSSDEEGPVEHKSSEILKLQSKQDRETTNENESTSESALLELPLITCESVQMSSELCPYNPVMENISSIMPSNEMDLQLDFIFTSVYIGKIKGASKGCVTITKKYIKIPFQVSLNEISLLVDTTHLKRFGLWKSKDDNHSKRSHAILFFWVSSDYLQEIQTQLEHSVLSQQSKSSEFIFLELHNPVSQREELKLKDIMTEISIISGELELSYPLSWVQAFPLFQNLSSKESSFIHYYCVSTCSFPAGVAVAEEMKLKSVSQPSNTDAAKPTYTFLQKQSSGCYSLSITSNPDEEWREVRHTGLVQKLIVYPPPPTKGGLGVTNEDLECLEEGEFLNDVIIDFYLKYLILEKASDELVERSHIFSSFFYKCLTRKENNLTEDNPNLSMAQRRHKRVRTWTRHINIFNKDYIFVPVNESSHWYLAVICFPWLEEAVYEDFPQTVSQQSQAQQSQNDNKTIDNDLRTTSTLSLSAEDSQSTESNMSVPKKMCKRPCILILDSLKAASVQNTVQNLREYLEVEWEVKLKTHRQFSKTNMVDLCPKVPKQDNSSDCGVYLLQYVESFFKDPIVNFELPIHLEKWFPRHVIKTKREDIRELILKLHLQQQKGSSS

Protein skinhead-1 = biological target: T5, Protein skinhead-1 (Caenorhabditis elegans, UniProt P34707)
T5 sequence (P34707 whole entry): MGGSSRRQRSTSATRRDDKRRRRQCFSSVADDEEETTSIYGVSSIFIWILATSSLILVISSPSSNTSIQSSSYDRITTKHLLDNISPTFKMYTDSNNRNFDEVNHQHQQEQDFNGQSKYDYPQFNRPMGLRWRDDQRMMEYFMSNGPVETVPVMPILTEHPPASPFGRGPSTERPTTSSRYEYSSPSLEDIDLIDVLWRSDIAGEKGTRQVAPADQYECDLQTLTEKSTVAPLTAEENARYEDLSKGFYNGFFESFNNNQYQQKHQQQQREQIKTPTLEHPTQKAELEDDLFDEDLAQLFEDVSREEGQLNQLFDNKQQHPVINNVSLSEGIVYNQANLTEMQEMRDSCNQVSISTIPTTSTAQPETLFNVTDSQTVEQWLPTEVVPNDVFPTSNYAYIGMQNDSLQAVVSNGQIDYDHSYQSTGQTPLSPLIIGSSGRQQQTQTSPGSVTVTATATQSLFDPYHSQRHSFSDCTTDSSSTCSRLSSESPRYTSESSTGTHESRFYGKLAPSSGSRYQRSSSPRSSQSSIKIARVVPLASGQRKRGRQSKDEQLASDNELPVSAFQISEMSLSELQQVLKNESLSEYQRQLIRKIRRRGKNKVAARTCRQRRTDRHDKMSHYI

[5] = biological target: T6, Polyadenylate-binding protein 1 (Homo sapiens, UniProt P11940); test: MLLE binding blockers, Cy5 peptide tracer – biochemical, fluorescence polarization, Cy5-PAM2 peptide, secondary, miRNA deadenylation inhibitor project, dose response (AID 602260); conditions: read-out: IC50_Mean
T6 sequence (P11940 whole entry, the tested form may be a part): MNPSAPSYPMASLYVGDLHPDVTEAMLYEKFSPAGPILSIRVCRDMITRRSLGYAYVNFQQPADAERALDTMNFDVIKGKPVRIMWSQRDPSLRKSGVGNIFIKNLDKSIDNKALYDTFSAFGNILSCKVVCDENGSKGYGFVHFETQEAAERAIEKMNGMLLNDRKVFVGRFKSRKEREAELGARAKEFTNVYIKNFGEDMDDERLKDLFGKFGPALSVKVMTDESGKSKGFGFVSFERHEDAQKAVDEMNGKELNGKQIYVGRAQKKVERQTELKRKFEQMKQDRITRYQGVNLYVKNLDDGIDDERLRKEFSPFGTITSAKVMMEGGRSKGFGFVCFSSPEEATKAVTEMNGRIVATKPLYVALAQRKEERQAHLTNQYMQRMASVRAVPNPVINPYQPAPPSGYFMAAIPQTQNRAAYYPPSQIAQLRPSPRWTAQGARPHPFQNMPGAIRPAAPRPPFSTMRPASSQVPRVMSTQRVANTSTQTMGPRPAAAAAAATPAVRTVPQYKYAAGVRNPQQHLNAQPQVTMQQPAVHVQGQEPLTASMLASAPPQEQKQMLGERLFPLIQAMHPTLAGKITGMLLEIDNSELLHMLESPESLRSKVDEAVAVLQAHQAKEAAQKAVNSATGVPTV

[6] = biological target: T6, Polyadenylate-binding protein 1; test: MLLE domain peptide-binding blockers, IC50 – biochemical, fluorescence polarization, FITC-PAM2 peptide, dose response (AID 602259); conditions: read-out: IC50_Mean

Row | IC50 (Caspase-3) | IC50 [3] | IC50 [4] | IC50 (Protein skinhead-1) | IC50 [5] | IC50 [6] | SMILES | IC50 [1] | EC50 [2]
1 | – | – | – | – | > 66 µM (inactive) | > 66 µM (inactive) | Cc1nc(NC(=S)NC(=O)c2ccccc2)sc1C(=O)N(C)C | – | –
2 | – | – | – | – | > 66 µM (inactive) | 35.2 µM (inactive) | O=C(NN=Cc1sc(=O)[n-]c1-[n+]1ccccc1)c1ccccc1O | – | –

Further lines, the molecule ahead of its results:

Row | SMILES | IC50 (Caspase-3) | IC50 [3] | IC50 [4] | IC50 (Protein skinhead-1) | IC50 [5] | IC50 [6] | IC50 [1] | EC50 [2]
3 | O=C(Nc1nc(=O)c2ccccc2s1)c1ccccc1 | 4.38 µM (active) | 60.6 µM (active) | 6.3 µM (active) | – | – | – | > 100 µM (inactive) | 63.1 µM (active)
4 | c1ccc2nc(-c3ccc(-n4ccnc4)cc3)ccc2c1 | 8.83 µM (active) | 10.8 µM (active) | 5.47 µM (active) | 7.87 µM (active) | – | – | 13.1 µM (active) | –
5 | CCN(CC)S(=O)(=O)c1ccc2c(c1)nc(SCn1nnc3ccccc3c1=O)n2CC | – | – | – | – | > 66 µM (inactive) | > 66 µM (inactive) | – | –
6 | COc1cccc(C(=O)OCC(=O)c2ccc(Br)s2)c1 | 26.8 µM (active) | 14.6 µM (active) | 10.3 µM (active) | – | – | – | 21.6 µM (active) | –
